# According to patent US20260297080A1, “BICYCLIC COMPOUNDS AS CDK INHIBITORS” (BeOne Medicines I GmbH, priority 2022, published 2026):
# pIC50: −log10 of the molar value.
# Tests used:
# CDK2/Cyclin E1 = CDK2/Cyclin E1 (Homo sapiens, UniProt P24941); test: CDK2/Cyclin E1 Biochemical Assay (TR-FRET), 1 mM ATP; settings: 0.15 μM Rb (Ser780)-biotin substrate, pH7.0, 60 min preincubation, 90 min reaction, room temperature
# In short: (§1)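 TR-FRET kinase reaction with 1 mM ATP and 0.15 μM Rb (Ser780)-biotin substrate in pH 7.0 HEPES buffer; enzyme preincubated 60 min with compound (0-10 μM), then reacted 90 min at room temperature. Phospho-Rb detected by Eu-anti-pRb/streptavidin-XL665 665/620 nm ratio; IC50 from four-parameter logistic fit.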
# CDK1/Cyclin B1 = CDK1/Cyclin B1 (Homo sapiens, UniProt P06493); test: CDK1/Cyclin B1 Biochemical Assay (TR-FRET), 1 mM ATP; settings: 0.15 μM Rb (Ser780)-biotin substrate, pH7.0, 60 min preincubation, 90 min reaction, room temperature
# CDK1/Cyclin B1, sequence (P06493 whole entry): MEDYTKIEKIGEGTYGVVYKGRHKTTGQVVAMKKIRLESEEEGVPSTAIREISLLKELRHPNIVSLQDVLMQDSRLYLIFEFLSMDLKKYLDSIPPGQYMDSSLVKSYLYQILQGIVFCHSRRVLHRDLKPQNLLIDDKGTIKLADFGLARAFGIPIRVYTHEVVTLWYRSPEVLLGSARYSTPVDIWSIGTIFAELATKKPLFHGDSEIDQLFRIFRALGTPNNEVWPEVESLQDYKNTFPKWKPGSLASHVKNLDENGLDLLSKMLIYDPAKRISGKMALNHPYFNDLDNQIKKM
# CDK1/Cyclin B1, sequence (P14635 whole entry partner): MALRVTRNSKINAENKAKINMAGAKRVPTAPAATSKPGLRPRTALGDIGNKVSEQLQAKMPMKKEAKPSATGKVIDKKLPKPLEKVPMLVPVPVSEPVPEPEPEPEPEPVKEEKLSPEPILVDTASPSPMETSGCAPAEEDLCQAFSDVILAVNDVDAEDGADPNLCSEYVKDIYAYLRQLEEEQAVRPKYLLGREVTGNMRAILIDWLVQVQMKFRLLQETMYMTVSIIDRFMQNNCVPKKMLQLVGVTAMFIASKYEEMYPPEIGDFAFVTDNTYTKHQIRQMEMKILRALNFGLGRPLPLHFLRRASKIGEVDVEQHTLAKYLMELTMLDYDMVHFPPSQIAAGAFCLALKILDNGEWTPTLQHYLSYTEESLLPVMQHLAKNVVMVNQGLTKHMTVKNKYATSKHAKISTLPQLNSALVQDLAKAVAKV
# In short: as §1
SMILES,pIC50 (CDK2/Cyclin E1),pIC50 (CDK1/Cyclin B1)
"CC1(NC(=O)O[C@H]2CC[C@@H](c3cc(Nc4cc5c(cc4F)S(=O)(=O)NC5)n[nH]3)C2)COC1 (relative stereo) [Example 451, cis-3-(3-((6-fluoro-1,1-dioxido-2,3-dihydrobenzo[d]isothiazol-5-yl)amino)-1H-pyrazol-5-yl)cyclopentyl(3-methyloxetan-3-yl)carbamate]",8.00,5.15
"CC1(C)CCN1C(=O)O[C@H]1CC[C@@H](c2cc(Nc3cc4c(cc3F)S(=O)(=O)NC4)n[nH]2)C1 (relative stereo) [Example 449, cis-3-(3-((6-fluoro-1,1-dioxido-2,3-dihydrobenzo[d]isothiazol-5-yl)amino)-1H-pyrazol-5-yl)cyclopentyl 2,2-dimethylazetidine-1-carboxylate]",8.39,5.92
"CC1(NC(=O)O[C@@H]2CC[C@H](c3cc(Nc4ccc5c(c4F)CS(=O)(=O)N5)n[nH]3)C2)CCC1 (single isomer, unassigned) [Example 427a]",8.96,6.84
"CC(C)NC(=O)O[C@H]1CC[C@@H](c2cc(Nc3ccc4c(c3F)N(C)S(=O)(=O)N4)n[nH]2)C1 (relative stereo) [Example 466, cis-3-(3-((4-fluoro-3-methyl-2,2-dioxido-1,3-dihydrobenzo[c][1,2,5]thiadiazol-5-yl)amino)-1H-pyrazol-5-yl)cyclopentyl isopropylcarbamate]",7.20,< 5.00
"CC1(NC(=O)O[C@H]2CC[C@@H](c3cc(Nc4ccc5c(c4F)CS(=O)(=O)N5)n[nH]3)C2)CCC1 (single isomer, unassigned) [Example 427b]",9.10,7.17
"CN1c2ccc(Nc3cc([C@@H]4CC[C@H](OC(=O)NC5CCOC5)C4)[nH]n3)cc2CS1(=O)=O (relative stereo) [Example 424, cis-3-(3-((1-methyl-2,2-dioxido-1,3-dihydrobenzo[c]isothiazol-5-yl)amino)-1H-pyrazol-5-yl)cyclopentyl(tetrahydrofuran-3-yl)carbamate]",7.08,< 5.00
"CC(C)(CO)NC(=O)O[C@H]1CC[C@@H](c2cc(Nc3ccc4c(c3F)CS(=O)(=O)N4C3CC3)n[nH]2)C1 (single isomer, unassigned) [Example 363a, cis-3-(3-((1-cyclopropyl-4-fluoro-2,2-dioxido-1,3-dihydrobenzo[c]isothiazol-5-yl)amino)-1H-pyrazol-5-yl)cyclopentyl(1-hydroxy-2-methylpropan-2-yl)carbamate]",8.66,5.62
"CN1c2ccc(Nc3cc([C@@H]4CC[C@H](OC(=O)NCC(C)(C)O)C4)[nH]n3)c(F)c2CS1(=O)=O (single isomer, unassigned) [Example 330a, cis-3-(3-((4-fluoro-1-methyl-2,2-dioxido-1,3-dihydrobenzo[c]isothiazol-5-yl)amino)-1H-pyrazol-5-yl)cyclopentyl(2-hydroxy-2-methylpropyl)carbamate]",7.08,< 5.00
"CC(C)NC(=O)O[C@H]1CC[C@@H](c2cc(Nc3ccc4c(c3F)NS(=O)(=O)N4)n[nH]2)C1 (relative stereo) [Example 465, cis-3-(3-((4-fluoro-2,2-dioxido-1,3-dihydrobenzo[c][1,2,5]thiadiazol-5-yl)amino)-1H-pyrazol-5-yl)cyclopentyl isopropylcarbamate]",7.74,5.31
"CN1c2ccc(Nc3cc([C@@H]4CC[C@H](OC(=O)NCC(C)(C)O)C4)[nH]n3)c(F)c2CS1(=O)=O (single isomer, unassigned) [Example 330b, cis-3-(3-((4-fluoro-1-methyl-2,2-dioxido-1,3-dihydrobenzo[c]isothiazol-5-yl)amino)-1H-pyrazol-5-yl)cyclopentyl(2-hydroxy-2-methylpropyl)carbamate]",7.62,5.39
